From patent US9745289B2, “Aldosterone synthase inhibitors” (Boehringer Ingelheim International GmbH, priority 2014, dated 2017) come the findings set out here.

Molecules are shown by their SMILES. A value given as a limit tells only on which side of the number the result lay.

In the assay the target is cortisol synthase (CYP11B1) (Macaca fascicularis, UniProt A0A2K5ULY1). The experiment in a line: Inhibition of Cortisol Synthesis. Type of assay: biochemical, cynomolgus monkey. The following applies: cynomolgus adrenal gland mitochondria; 150 units of CYP11B1, 11-deoxycortisol as substrate, cortisol measured as product. As to the method:
The aldosterone synthase and cortisol synthase inhibition assays employ cynomolgus adrenal gland mitochondria as the source of aldosterone synthase (CYP11B2) and cortisol synthase (CYP11B1). […] Activity of CYP11B2 and CYP11B1 in these preparations is defined as the amount of enzyme that generates 1 pmol of product in one hour under the conditions described.
Assays are performed in 96-well format in a final volume of 60 μL/well, containing 100 mM potassium phosphate, pH 7.4, 1% (v/v) DMSO, and additionally, 2 μM of corticosterone and 50 units of CYP11B2 activity. Reactions are started by the addition of NADPH to 1 mM and allowed to proceed for 90 minutes at 37° C. Reactions are terminated by the addition of 60 μL of MeCN containing an internal standard for mass spectrometry. One hundred microliters are then transferred to a glass filter plate and centrifuged at 570×g for 5 minutes and the filtrate is collected. Reaction product aldosterone is quantified by mass spectrometry. To determine the assay blank value (0% activity), NADPH is omitted from some reactions.
Dose dependent inhibition is quantified by the inclusion of compound at various concentrations. Maximum activity (100%) is defined by reactions containing NADPH, but without compound.
Assays are performed as for aldosterone synthase except for the use of 150 units of CYP11B1, 11-deoxycortisol as substrate and cortisol measured as product.
The molecule `NC(=O)c1cccc2c1OCC(c1cncc(CN3CCOC3=O)c1)O2` (single isomer, unassigned) [Cpd 31A, 2-[5-(2-Oxo-oxazolidin-3-ylmethyl)-pyridin-3-yl]-2,3-dihydro-benzo[1,4]dioxine-5-carboxylic acid amide] returned an IC50 greater than 30 µM.
`NC(=O)c1cccc2c1OCC(c1cncc(CN3CCOC3=O)c1)O2` (single isomer, unassigned) [Cpd 31B, 2-[5-(2-Oxo-oxazolidin-3-ylmethyl)-pyridin-3-yl]-2,3-dihydro-benzo[1,4]dioxine-5-carboxylic acid amide]: the IC50 was greater than 30 µM.
The same measure for `NC(=O)c1cccc2c1OCC(c1cncc(C3(F)CCOCC3)c1)O2` (single isomer, unassigned) [Cpd 32A, 2-[5-(4-Fluoro-tetrahydro-pyran-4-yl)-pyridin-3-yl]-2,3-dihydro-benzo[1,4]dioxine-5-carboxylic acid amide]: 6 µM.
The figure for `NC(=O)c1cccc2c1OCC(c1cncc(C3(F)CCOCC3)c1)O2` (single isomer, unassigned) [Cpd 32B, 2-[5-(4-Fluoro-tetrahydro-pyran-4-yl)-pyridin-3-yl]-2,3-dihydro-benzo[1,4]dioxine-5-carboxylic acid amide] is 0.35 µM; for `CNC(=O)c1cccc2c1OCC(c1cncc(OC3CCN(C(C)=O)CC3)c1)O2` (single isomer, unassigned) [Cpd 33A, 2-[5-(1-Acetyl-piperidin-4-yloxy)-pyridin-3-yl]-2,3-dihydro-benzo[1,4]dioxine-5-carboxylic acid methylamide] it is greater than 30 µM.
The same measure for `CNC(=O)c1cccc2c1OCC(c1cncc(OC3CCN(C(C)=O)CC3)c1)O2` (single isomer, unassigned) [Cpd 33B, 2-[5-(1-Acetyl-piperidin-4-yloxy)-pyridin-3-yl]-2,3-dihydro-benzo[1,4]dioxine-5-carboxylic acid methylamide]: greater than 30 µM; for `N#Cc1cccc2c1OCC(c1cncc(CN3CCOC3=O)c1)O2` (single isomer, unassigned) [Cpd 34A, 2-[5-(2-Oxo-oxazolidin-3-ylmethyl)-pyridin-3-yl]-2,3-dihydro-benzo[1,4]dioxine-5-carbonitrile]: 8.5 µM; for `N#Cc1cccc2c1OCC(c1cncc(CN3CCOC3=O)c1)O2` (single isomer, unassigned) [Cpd 34B, 2-[5-(2-Oxo-oxazolidin-3-ylmethyl)-pyridin-3-yl]-2,3-dihydro-benzo[1,4]dioxine-5-carbonitrile]: greater than 30 µM.
The molecule `CN1C(=O)CCC1c1cncc(C2COc3c(C#N)cccc3O2)c1` (single isomer, unassigned) [Cpd 35A, 2-[5-(1-Methyl-5-oxo-pyrrolidin-2-yl)-pyridin-3-yl]-2,3-dihydro-benzo[1,4] dioxine-5-carbonitrile] showed an IC50 of 0.53 µM.
The same measure for `CN1C(=O)CCC1c1cncc(C2COc3c(C#N)cccc3O2)c1` (single isomer, unassigned) [Cpd 35B, 2-[5-(1-Methyl-5-oxo-pyrrolidin-2-yl)-pyridin-3-yl]-2,3-dihydro-benzo[1,4] dioxine-5-carbonitrile]: 6.2 µM.
The figure for `N#Cc1cccc2c1OCC(c1cncc(CN3CCOCC3=O)c1)O2` (single isomer, unassigned) [Cpd 36A, 2-[5-(3-Oxo-morpholin-4-ylmethyl)-pyridin-3-yl]-2,3-dihydro-benzo[1,4]dioxine-5-carbonitrile] is greater than 30 µM; for `N#Cc1cccc2c1OCC(c1cncc(CN3CCOCC3=O)c1)O2` (single isomer, unassigned) [Cpd 36B, 2-[5-(3-Oxo-morpholin-4-ylmethyl)-pyridin-3-yl]-2,3-dihydro-benzo[1,4]dioxine-5-carbonitrile] it is 5.8 µM.
`CS(=O)(=O)Cc1cncc(C2COc3c(C#N)cccc3O2)c1` (single isomer, unassigned) [Cpd 37A, 2-(5-Methanesulfonylmethyl-pyridin-3-yl)-2,3-dihydro-benzo[1,4]dioxine-5-carbonitrile] had an IC50 of 25 µM.
The same measure for `CS(=O)(=O)Cc1cncc(C2COc3c(C#N)cccc3O2)c1` (single isomer, unassigned) [Cpd 37B, 2-(5-Methanesulfonylmethyl-pyridin-3-yl)-2,3-dihydro-benzo[1,4]dioxine-5-carbonitrile]: 8 µM; for `CC(=O)N1CCC(Oc2cncc(C3COc4c(C#N)cccc4O3)c2)CC1` (single isomer, unassigned) [Cpd 38A, 2-[5-(1-Acetyl-piperidin-4-yloxy)-pyridin-3-yl]-2,3-dihydro-benzo[1,4]dioxine-5-carbonitrile]: 15 µM; for `CC(=O)N1CCC(Oc2cncc(C3COc4c(C#N)cccc4O3)c2)CC1` (single isomer, unassigned) [Cpd 38B, 2-[5-(1-Acetyl-piperidin-4-yloxy)-pyridin-3-yl]-2,3-dihydro-benzo[1,4]dioxine-5-carbonitrile]: 0.7 µM.
The same measure for `N#Cc1cccc2c1OCC(c1cncc(CNC(=O)C3CC3)c1)O2` (single isomer, unassigned) [Cpd 39A, Cyclopropanecarboxylic acid [5-(5-cyano-2,3-dihydro-benzo[1,4]dioxin-2-yl)-pyridin-3-ylmethyl]-amide]: 7.3 µM; for `N#Cc1cccc2c1OCC(c1cncc(CNC(=O)C3CC3)c1)O2` (single isomer, unassigned) [Cpd 39B, Cyclopropanecarboxylic acid [5-(5-cyano-2,3-dihydro-benzo[1,4]dioxin-2-yl)-pyridin-3-ylmethyl]-amide]: greater than 30 µM.
The same measure for `N#Cc1cccc2c1OCC(c1cncc(-c3ccc(S(N)(=O)=O)cc3)c1)O2` (single isomer, unassigned) [Cpd 40A, 4-[5-(5-Cyano-2,3-dihydro-benzo[1,4]dioxin-2-yl)-pyridin-3-yl]-benzenesulfonamide]: greater than 30 µM; for `N#Cc1cccc2c1OCC(c1cncc(-c3ccc(S(N)(=O)=O)cc3)c1)O2` (single isomer, unassigned) [Cpd 40B, 4-[5-(5-Cyano-2,3-dihydro-benzo[1,4]dioxin-2-yl)-pyridin-3-yl]-benzenesulfonamide]: 11 µM; for `N#Cc1cccc2c1OCC(c1cncc(CN3CCCCS3(=O)=O)c1)O2` (single isomer, unassigned) [Cpd 41A, 2-[5-(1,1-Dioxo-1lambda6-[1,2]thiazinan-2-ylmethyl)-pyridin-3-yl]-2,3-dihydro-benzo[1,4]dioxine-5-carbonitrile]: 24 µM.
In turn, `N#Cc1cccc2c1OCC(c1cncc(CN3CCCCS3(=O)=O)c1)O2` (single isomer, unassigned) [Cpd 41B, 2-[5-(1,1-Dioxo-1lambda6-[1,2]thiazinan-2-ylmethyl)-pyridin-3-yl]-2,3-dihydro-benzo[1,4]dioxine-5-carbonitrile] returned an IC50 of 3.9 µM.
With `CN(C)C(=O)COCc1cncc(C2COc3c(C#N)cccc3O2)c1` (single isomer, unassigned) [Cpd 42A, 2-[5-(5-Cyano-2,3-dihydro-benzo[1,4]dioxin-2-yl)-pyridin-3-ylmethoxy]-N,N-dimethyl-acetamide], inhibition was half-maximal at 18 µM (IC50).
`CN(C)C(=O)COCc1cncc(C2COc3c(C#N)cccc3O2)c1` (single isomer, unassigned) [Cpd 42B, 2-[5-(5-Cyano-2,3-dihydro-benzo[1,4]dioxin-2-yl)-pyridin-3-ylmethoxy]-N,N-dimethyl-acetamide] gave an IC50 of 1.3 µM.
The figure for `N#Cc1cccc2c1OCC(c1cncc(CC(=O)N3CCOCC3)c1)O2` (single isomer, unassigned) [Cpd 43A, 2-[5-(2-Morpholin-4-yl-2-oxo-ethyl)-pyridin-3-yl]-2,3-dihydro-benzo[1,4]dioxine-5-carbonitrile] is 22 µM.
Turning to `N#Cc1cccc2c1OCC(c1cncc(CC(=O)N3CCOCC3)c1)O2` (single isomer, unassigned) [Cpd 43B, 2-[5-(2-Morpholin-4-yl-2-oxo-ethyl)-pyridin-3-yl]-2,3-dihydro-benzo[1,4]dioxine-5-carbonitrile], the IC50 is greater than 30 µM.
`CS(=O)(=O)COc1cncc(C2COc3c(C#N)cccc3O2)c1` (single isomer, unassigned) [Cpd 44A, 2-(5-Methanesulfonylmethoxy-pyridin-3-yl)-2,3-dihydro-benzo[1,4]dioxine-5-carbonitrile]: the IC50 was 2.2 µM.
`CS(=O)(=O)COc1cncc(C2COc3c(C#N)cccc3O2)c1` (single isomer, unassigned) [Cpd 44B, 2-(5-Methanesulfonylmethoxy-pyridin-3-yl)-2,3-dihydro-benzo[1,4]dioxine-5-carbonitrile]: the IC50 was 13 µM.
The figure for `CCOc1cncc(C2COc3c(cccc3C(N)=O)O2)c1` (single isomer, unassigned) [Cpd 45A, 2-(5-ethoxy-pyridin-3-yl)-2,3-dihydro-benzo[1,4]dioxine-5-carboxylic acid amide] is 0.21 µM.
The figure for `CCOc1cncc(C2COc3c(cccc3C(N)=O)O2)c1` (single isomer, unassigned) [Cpd 45B, 2-(5-ethoxy-pyridin-3-yl)-2,3-dihydro-benzo[1,4]dioxine-5-carboxylic acid amide] is 0.28 µM; for `NC(=O)c1cccc2c1OCC(c1cncc(O[C@@H]3CCOC3)c1)O2` (single isomer, unassigned) [Cpd 46A] it is 7 µM.

One may read the IC50 as the point on the concentration scale where inhibition reaches its midpoint.
